Where two headings read alike, the source gives them in different places.
Columns and labels:
CDK1/cyclin B = CDK1/cyclin B (Homo sapiens, UniProt P06493); assay: Kinase assay CDK1/cyclin B; type: biochemical
Method in brief: (§1)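 Radiometric kinase assays with recombinant enzymes (2-4 μg) and polypeptide substrates in β-glycerophosphate/MOPS/EGTA buffer, pH 7.4. Started with 15 mM MgCl2 + 100 μM ATP containing [γ-32P]-ATP, incubated at 30° C; incorporated 32P captured on filterplates and counted. Compounds diluted in 10% DMSO assay buffer.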

[1] = molecular target: Akt/PKB (protein kinase B) (Homo sapiens, UniProt P31749); assay: Kinase assay Akt/PKB; type: biochemical; conditions: Table 3 selectivity panel; read-out: Kinase specificity IC50 Akt/PKB
Method: (§2) Kinase assays. […] This was achieved by measurement of incorporation of radioactive phosphate from ATP into appropriate polypeptide substrates. Recombinant protein kinases and kinase complexes were produced or obtained commercially. Assays were performed using 96-well plates and appropriate assay buffers (typically 25 mM β-glycerophosphate, 20 mM MOPS, 5 mM EGTA, 1 mM DTT, 1 mM […], pH 7.4), into which were added 2-4 μg of active enzyme with appropriate substrates. The reactions were initiated by addition of Mg/ATP mix (15 mM MgCl2+100 μM ATP with 30-50 kBq per well of [γ-^32P]-ATP) and mixtures incubated as required at 30° C. Reactions were stopped on ice, followed by filtration through p81 filterplates or GF/C filterplates (Whatman Polyfiltronics, Kent, UK). After washing 3 times with 75 mM aq orthophosphoric acid, plates were dried, scintillant added and incorporated radioactivity measured in a scintillation counter (TopCount, Packard Instruments, Pangbourne, Berks, UK). Compounds for kinase assay were made-up as 10 mM stocks in DMSO and diluted into 10% DMSO inrassay buffer.

[2] = molecular target: CaMKII (calmodulin-depependent kinase II); assay: Kinase assay CaMKII; type: biochemical; conditions: Table 3 selectivity panel; read-out: Kinase specificity IC50 CaMKII
Method: as §2

HT29 = assay: 72-h MTT cytotoxicity assay HT29; type: cell-based; conditions: Homo sapiens, HT-29, 72 h
Method in brief: (§3)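 Read-out is MTT formazan dissolved in DMSO after a 4 h dark incubation with dye at 37° C. Before that, cells seeded according to doubling time received a 1/3 dilution series of compound in triplicate for 72 h at 37° C.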

GSK-3β = GSK-3β (Homo sapiens, UniProt P49841); assay: Kinase assay GSK-3β; type: biochemical
Method in brief: as §1

CDK4/cyclin D1 = CDK4/cyclin D1 (Homo sapiens, UniProt P11802); assay: Kinase assay CDK4/cyclin D1; type: biochemical
Method in brief: as §1

[3] = molecular target: Abl (Ableson tyrosine kinase) (Homo sapiens, UniProt P00519); assay: Kinase assay Abl; type: biochemical; conditions: Table 3 selectivity panel; read-out: Kinase specificity IC50 Abl
Method: as §2

A549 = assay: 72-h MTT cytotoxicity assay A549; type: cell-based; conditions: Homo sapiens, A549, 72 h
Method in brief: as §3

CDK7/cyclin H = CDK7/cyclin H (Homo sapiens, UniProt P50613); assay: CDK7 assay; type: biochemical
Method in brief: (§4)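 Recombinant human CDK7/cyclin H or CDK9/cyclin T1 (0.5–2 μg) phosphorylated biotinylated CTD heptapeptide-repeat substrate for 45 min at 30 °C in MOPS pH 7.2 buffer with 15 mM MgCl2 and 100 μM ATP plus [γ-32P]ATP. After avidin capture on P81 filters and phosphoric acid washes, 32P incorporation was counted by scintillation.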

Saos-2 = assay: 72-h MTT cytotoxicity assay Saos-2; type: cell-based; conditions: Homo sapiens, SAOS-2, 72 h
Method in brief: as §3

CDK9/cyclin T1 = CDK9/cyclin T1 (Homo sapiens, UniProt P50750); assay: CDK9 assay; type: biochemical
Method in brief: as §4

AGS = assay: 72-h MTT cytotoxicity assay AGS; type: cell-based; conditions: Homo sapiens, Table 5, Gastric adenocarcinoma
Method: (§5) MTT cytotoxicity assay. […] Standard 72-h MTT (thiazolyl blue; 3-[4,5-dimethylthiazol-2-yl]-2,5-diphenyltetrazolium bromide) assays were performed (Haselsberger, K.; Peterson, D. C.; Thomas, D. G.; Darling, J. L. Anti Cancer Drugs 1996, 7, 331-8; Loveland, B. E.; Johns, T. G.; Mackay, I. R.; Vaillant, F.; Wang, Z. X.; Hertzog, P. J. Biochemistry International 1992, 27, 501-10). In short: cells were seeded into 96-well plates according to doubling time and incubated overnight at 37° C. Test compounds were made up in DMSO and a 1/3 dilution series prepared in 100 μL cell media, added to cells (in triplicates) and incubated for 72 ho at 37° C. MTT was made up as a stock of 5 mg/mL in cell media and filter-sterilised. Media was removed from cells followed by a wash with 200 μL PBS.
(§6) MTT solution was then added at 20 μL per well and incubated in the dark at 37° C. for 4 h. MTT solution was removed and cells again washed with 200 μL PBS. MTT dye was solubilised with 200 μL per well of DMSO with agitation.

CDK2/cyclin E = CDK2/cyclin E (Homo sapiens, UniProt P24941); assay: Kinase assay CDK2/cyclin E; type: biochemical
Method in brief: as §1

WI38 = assay: 72-h MTT cytotoxicity assay WI38; type: cell-based; conditions: Homo sapiens, WI-38, 72 h; Table 5; Foetal lung fibroblast (non-transformed)
Method: as §5, §6

all transformed cells = assay: 72-h MTT cytotoxicity assay, summary over all transformed cells; type: cell-based; conditions: Homo sapiens
Method: as §5, §6

IMR-90 = assay: 72-h MTT cytotoxicity assay IMR-90; type: cell-based; conditions: Homo sapiens, IMR-90, 72 h; Table 5; Foetal lung fibroblast (non-transformed)
Method: as §5, §6

HCT-116 = assay: 72-h MTT cytotoxicity assay HCT-116; type: cell-based; conditions: Homo sapiens, HCT-116, 72 h; Table 5; Colon
Method: as §5, §6

[4] = Table 2, read-out: Kinase Inhibition IC50 CDK1 cyclin B
[5] = Table 3 selectivity panel, read-out: Kinase specificity IC50 CDK1/B1
[6] = Table 2, read-out: Kinase Inhibition IC50 GSK-3β
[7] = Table 3 selectivity panel, glycogen synthase kinase 3β, read-out: Kinase specificity IC50 GSK-3
[8] = Table 2, read-out: Kinase Inhibition IC50 CDK4 cyclin D1
[9] = Table 3 selectivity panel, read-out: Kinase specificity IC50 CDK4/D1
[10] = Table 2, read-out: Kinase Inhibition IC50 CDK7 cyclin H
[11] = Table 3 selectivity panel, CDK7/cyclin H/MAT 1 complex, read-out: Kinase specificity IC50 CDK7/H
[12] = Table 2, read-out: Kinase Inhibition IC50 CDK9 cyclin T1
[13] = Table 3 selectivity panel, read-out: Kinase specificity IC50 CDK9/T1

Sequence of CDK9/cyclin T1 (P50750 whole entry): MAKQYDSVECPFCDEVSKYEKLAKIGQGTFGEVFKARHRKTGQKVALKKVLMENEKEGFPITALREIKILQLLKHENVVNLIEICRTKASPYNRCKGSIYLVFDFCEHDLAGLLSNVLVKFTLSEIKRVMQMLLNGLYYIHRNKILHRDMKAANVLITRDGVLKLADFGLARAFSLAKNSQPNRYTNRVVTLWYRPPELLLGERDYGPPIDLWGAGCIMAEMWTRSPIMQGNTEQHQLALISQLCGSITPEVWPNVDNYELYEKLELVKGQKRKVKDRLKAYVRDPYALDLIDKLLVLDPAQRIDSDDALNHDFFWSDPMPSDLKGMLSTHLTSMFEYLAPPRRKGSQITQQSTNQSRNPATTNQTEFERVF
Sequence of CDK9/cyclin T1 (O60563 whole entry partner): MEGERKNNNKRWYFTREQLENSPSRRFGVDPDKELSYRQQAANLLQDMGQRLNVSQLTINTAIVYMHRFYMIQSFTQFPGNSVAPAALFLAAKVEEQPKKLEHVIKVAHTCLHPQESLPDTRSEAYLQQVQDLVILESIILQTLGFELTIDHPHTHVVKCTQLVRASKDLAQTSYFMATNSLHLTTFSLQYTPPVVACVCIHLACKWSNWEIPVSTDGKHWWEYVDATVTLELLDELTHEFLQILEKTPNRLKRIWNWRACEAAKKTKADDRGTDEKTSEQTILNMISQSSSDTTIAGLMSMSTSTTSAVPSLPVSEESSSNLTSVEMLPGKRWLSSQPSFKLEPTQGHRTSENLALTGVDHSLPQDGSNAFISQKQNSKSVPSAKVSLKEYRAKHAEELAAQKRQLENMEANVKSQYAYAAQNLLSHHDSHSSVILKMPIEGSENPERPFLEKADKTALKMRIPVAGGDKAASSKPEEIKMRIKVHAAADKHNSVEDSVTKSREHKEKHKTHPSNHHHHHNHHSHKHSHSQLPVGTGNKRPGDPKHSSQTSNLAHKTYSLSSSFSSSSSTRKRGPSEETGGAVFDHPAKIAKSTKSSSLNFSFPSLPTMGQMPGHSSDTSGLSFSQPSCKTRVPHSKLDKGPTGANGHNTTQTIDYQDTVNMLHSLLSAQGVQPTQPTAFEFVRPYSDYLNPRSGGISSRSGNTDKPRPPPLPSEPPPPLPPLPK
Sequence of GSK-3β (P49841 whole entry): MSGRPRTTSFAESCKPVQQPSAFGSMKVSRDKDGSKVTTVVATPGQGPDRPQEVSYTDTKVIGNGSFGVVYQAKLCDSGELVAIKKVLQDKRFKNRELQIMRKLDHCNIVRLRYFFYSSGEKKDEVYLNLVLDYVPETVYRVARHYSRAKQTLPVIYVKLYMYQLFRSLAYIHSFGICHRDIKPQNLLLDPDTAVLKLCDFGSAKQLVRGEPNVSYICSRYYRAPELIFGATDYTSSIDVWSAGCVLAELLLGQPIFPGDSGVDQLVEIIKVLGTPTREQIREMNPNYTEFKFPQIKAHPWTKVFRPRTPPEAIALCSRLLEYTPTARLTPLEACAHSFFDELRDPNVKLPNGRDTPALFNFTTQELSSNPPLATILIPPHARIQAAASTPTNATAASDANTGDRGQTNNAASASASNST
Sequence of CDK1/cyclin B (P06493 whole entry): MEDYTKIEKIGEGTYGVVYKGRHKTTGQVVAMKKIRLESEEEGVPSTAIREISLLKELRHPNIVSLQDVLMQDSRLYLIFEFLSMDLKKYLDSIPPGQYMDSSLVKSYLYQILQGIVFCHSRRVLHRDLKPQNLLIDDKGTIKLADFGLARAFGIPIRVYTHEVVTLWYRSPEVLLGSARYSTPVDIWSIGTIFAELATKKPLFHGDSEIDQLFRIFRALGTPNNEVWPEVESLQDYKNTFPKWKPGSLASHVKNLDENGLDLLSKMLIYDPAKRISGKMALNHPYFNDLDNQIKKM
Sequence of CDK1/cyclin B (P14635 whole entry partner): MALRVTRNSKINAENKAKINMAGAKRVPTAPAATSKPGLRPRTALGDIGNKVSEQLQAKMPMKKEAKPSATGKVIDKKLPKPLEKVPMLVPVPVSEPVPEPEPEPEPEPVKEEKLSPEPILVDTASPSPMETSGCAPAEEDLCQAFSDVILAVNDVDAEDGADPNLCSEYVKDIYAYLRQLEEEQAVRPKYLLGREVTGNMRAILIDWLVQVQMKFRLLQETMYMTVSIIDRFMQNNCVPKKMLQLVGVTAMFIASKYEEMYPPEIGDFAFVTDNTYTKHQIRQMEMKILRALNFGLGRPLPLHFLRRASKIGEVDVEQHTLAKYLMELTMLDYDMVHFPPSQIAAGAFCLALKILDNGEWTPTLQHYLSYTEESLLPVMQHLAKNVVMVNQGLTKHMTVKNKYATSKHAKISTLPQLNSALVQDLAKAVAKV
Sequence of CDK7/cyclin H (P50613 whole entry): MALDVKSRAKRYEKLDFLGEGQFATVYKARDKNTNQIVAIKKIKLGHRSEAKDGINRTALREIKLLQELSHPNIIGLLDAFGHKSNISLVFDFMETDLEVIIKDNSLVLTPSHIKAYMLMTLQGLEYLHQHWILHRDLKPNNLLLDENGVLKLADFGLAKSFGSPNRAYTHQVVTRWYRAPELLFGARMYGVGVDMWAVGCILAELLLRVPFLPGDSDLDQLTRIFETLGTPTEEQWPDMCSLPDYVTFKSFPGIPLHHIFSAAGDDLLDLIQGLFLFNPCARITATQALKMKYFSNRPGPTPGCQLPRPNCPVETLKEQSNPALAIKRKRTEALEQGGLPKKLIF
Sequence of CDK4/cyclin D1 (P11802 whole entry): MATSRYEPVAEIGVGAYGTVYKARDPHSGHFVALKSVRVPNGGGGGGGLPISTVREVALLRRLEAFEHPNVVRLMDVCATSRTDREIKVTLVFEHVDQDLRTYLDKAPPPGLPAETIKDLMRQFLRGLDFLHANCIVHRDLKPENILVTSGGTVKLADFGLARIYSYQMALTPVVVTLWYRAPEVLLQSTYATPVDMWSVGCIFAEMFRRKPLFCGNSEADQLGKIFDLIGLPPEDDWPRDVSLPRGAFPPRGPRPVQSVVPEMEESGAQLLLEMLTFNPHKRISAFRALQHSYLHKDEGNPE
Sequence of CDK4/cyclin D1 (P24385 whole entry partner): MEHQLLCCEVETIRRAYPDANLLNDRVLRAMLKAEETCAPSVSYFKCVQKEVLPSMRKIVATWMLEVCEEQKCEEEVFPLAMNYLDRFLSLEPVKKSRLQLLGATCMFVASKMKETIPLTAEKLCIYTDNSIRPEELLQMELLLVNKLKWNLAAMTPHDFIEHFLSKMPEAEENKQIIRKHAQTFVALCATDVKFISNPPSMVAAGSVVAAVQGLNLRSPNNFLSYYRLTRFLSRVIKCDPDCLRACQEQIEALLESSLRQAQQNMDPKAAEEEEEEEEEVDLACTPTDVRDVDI
Sequence of Akt/PKB (protein kinase B) (P31749 whole entry): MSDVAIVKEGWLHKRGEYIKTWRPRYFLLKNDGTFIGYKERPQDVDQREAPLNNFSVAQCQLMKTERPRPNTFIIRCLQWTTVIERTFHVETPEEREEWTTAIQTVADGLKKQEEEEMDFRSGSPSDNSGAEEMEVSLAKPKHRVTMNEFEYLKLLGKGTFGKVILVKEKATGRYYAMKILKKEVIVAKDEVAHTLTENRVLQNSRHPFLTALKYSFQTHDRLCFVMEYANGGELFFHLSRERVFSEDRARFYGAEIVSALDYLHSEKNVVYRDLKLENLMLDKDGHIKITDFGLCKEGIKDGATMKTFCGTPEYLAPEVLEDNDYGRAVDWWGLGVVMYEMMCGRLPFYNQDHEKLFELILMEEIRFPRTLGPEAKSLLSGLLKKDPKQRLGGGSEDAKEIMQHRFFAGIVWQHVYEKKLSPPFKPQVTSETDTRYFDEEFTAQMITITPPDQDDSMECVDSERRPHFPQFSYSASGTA
Sequence of Abl (Ableson tyrosine kinase) (P00519 whole entry, species assumed): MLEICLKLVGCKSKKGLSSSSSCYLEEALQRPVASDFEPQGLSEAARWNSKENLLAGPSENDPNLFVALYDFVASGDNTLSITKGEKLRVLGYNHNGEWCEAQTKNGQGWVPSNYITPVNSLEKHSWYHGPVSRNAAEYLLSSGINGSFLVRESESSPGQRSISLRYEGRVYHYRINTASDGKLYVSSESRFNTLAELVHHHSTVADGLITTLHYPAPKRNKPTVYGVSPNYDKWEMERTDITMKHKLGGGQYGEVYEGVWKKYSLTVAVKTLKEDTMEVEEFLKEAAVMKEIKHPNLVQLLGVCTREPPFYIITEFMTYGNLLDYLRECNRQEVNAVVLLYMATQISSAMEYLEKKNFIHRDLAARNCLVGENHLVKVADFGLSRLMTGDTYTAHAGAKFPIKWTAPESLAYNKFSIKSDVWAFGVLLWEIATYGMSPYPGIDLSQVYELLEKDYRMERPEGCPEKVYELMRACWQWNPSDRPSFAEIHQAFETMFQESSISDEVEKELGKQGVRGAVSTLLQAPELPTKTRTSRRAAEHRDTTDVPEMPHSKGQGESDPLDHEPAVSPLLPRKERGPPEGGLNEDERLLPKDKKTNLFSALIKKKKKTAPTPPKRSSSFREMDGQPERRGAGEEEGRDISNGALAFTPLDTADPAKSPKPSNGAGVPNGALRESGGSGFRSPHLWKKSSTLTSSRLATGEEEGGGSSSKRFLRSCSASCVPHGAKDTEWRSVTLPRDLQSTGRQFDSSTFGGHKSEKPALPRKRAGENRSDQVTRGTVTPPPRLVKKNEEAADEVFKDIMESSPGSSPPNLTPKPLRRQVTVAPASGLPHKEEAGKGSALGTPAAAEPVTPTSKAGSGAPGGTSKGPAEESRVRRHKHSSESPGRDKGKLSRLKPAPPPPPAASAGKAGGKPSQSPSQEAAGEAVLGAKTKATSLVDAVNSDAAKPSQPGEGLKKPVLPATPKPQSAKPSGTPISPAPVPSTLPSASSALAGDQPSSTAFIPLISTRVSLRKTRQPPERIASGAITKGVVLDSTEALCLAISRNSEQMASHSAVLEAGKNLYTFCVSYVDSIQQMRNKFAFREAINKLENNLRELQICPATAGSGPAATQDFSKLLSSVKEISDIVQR

| SMILES | IC50 (CDK1/cyclin B; [4]) [µM] | IC50 (CDK1/cyclin B; [5]) [µM] | IC50 [1] [µM] | IC50 [2] [µM] | IC50 (HT29; Table 4) [nM] | IC50 (GSK-3β; [6]) [nM] | IC50 (GSK-3β; [7]) [nM] | IC50 (CDK4/cyclin D1; [8]) [nM] | IC50 (CDK4/cyclin D1; [9]) [nM] | IC50 [3] [µM] | IC50 (A549; Table 4) [nM] | IC50 (CDK7/cyclin H; [10]) [µM] | IC50 (CDK7/cyclin H; [11]) [µM] | IC50 (Saos-2; Table 4) [nM] | IC50 (CDK9/cyclin T1; [12]) [nM] | IC50 (CDK9/cyclin T1; [13]) [nM] | also measured |
| --- | --- | --- | --- | --- | --- | --- | --- | --- | --- | --- | --- | --- | --- | --- | --- | --- | --- |
| CNc1nc(C)c(-c2ccnc(Nc3ccc(N4CCOCC4)cc3)n2)s1 [Compound 3, [4-(2-N-Methylamino-4-methyl-thiazol-5-yl)-pyrimidin-2-yl]-(4-morpholinophenyl)-amine] | 71 | > 100 | > 100 | > 100 | 2800 | > 100000 | > 100000 | 1400 | 150 | 50 | 3700 | 106 | > 100 | 3100 | 12000 | 8500 |  |
| CC[C@@H](N)C(=O)Nc1nc(C)c(-c2ccnc(Nc3cccc([N+](=O)[O-])c3)n2)s1 [Compound 16, (2R)-2-Amino-N-{4-methyl-5-[2-(3-nitro-phenylamino)-pyrimidin-4-yl]-thiazol-2-yl}-butyramide] | 2.8 | 2.8 | > 100 | 11 | 290 | 680 | 680 | 6700 | 6700 | 1.5 | 530 | 1.1 | 0.97 |  | 110 | 200 | IC50 (AGS): 300 nM; IC50 (CDK2/cyclin E; Table 2, read-out: Kinase Inhibition IC50 CDK2 cyclin E): 320 nM; IC50 (CDK2/cyclin E; Table 3 selectivity panel, read-out: Kinase specificity IC50 CDK2/E): 350 nM; IC50 (WI38): 1400 nM; IC50 (HT29; Table 5, Colon): 300 nM; IC50 (all transformed cells; Table 5, average over transformed cell lines, read-out: 72-h MTT IC50 Average (all transformed cells)): 600 nM; IC50 (all transformed cells; Table 5, median over transformed cell lines, read-out: 72-h MTT IC50 Median (all transformed cells)): 400 nM; IC50 (A549; Table 5, Lung): 500 nM; IC50 (IMR-90): 1700 nM; IC50 (Saos-2; Table 5, Bone osteosarcoma): 600 nM; IC50 (HCT-116): 300 nM |
| CCNc1nc(C)c(-c2ccnc(Nc3ccc(N4CCOCC4)cc3)n2)s1 [Compound 4, [4-(2-Ethylamino-4-methyl-thiazol-5-yl)-pyrimidin-2-yl]-(4-morpholin-4-yl-phenyl)-amine] | 30 |  |  |  | 920 | > 100000 |  | 430 |  |  | 770 | 12 |  | 1200 | 1800 |  |  |

Reference: patent publication US7432260B2, “Pyrimidine compounds” (Cyclacel Limted, priority 2002, dated 2008)
